Settings: for mass density / vapor or sublimation pressure / viscosity / speed of sound: Liquid; for vapor or sublimation pressure: Ebulliometric method (Recirculating still); for surface tension liquid-gas: Drop volume; for viscosity: Capillary tube (Ostwald / Ubbelohde) method; for speed of sound: Pulse-echo method

Cc1ccc(C=O)o1 [5-methylfurfural]
Settings | mass density [kg/m3] | speed of sound [m/s] | viscosity [mPa·s]
313.15 K, 7500 kPa | 1093.64 | – | –
313.15 K, 10000 kPa | 1095.27 | – | –
313.15 K, 20000 kPa | 1101.5 | – | –
313.15 K, 30000 kPa | 1107.37 | – | –
313.15 K, 40000 kPa | 1112.86 | – | –
313.15 K, 50000 kPa | 1118.1 | – | –
313.15 K, 60000 kPa | 1123.12 | – | –
315.65 K, 101.33 kPa | – | 1383.3 | 1.402
318.15 K, 100 kPa | 1083.33 | – | –
318.15 K, 101.33 kPa | – | 1374.3 | 1.345
318.15 K, 2500 kPa | 1085.42 | – | –
318.15 K, 5000 kPa | 1087.05 | – | –
318.15 K, 7500 kPa | 1088.71 | – | –
318.15 K, 10000 kPa | 1090.41 | – | –
318.15 K, 20000 kPa | 1096.72 | – | –
318.15 K, 30000 kPa | 1102.74 | – | –
318.15 K, 40000 kPa | 1108.39 | – | –
318.15 K, 50000 kPa | 1113.73 | – | –
318.15 K, 60000 kPa | 1118.89 | – | –
320.65 K, 101.33 kPa | – | 1365.3 | 1.292
323.15 K, 100 kPa | 1078.33 | – | –
323.15 K, 101.33 kPa | – | 1356.1 | 1.241
323.15 K, 2500 kPa | 1080.39 | – | –
323.15 K, 5000 kPa | 1082.17 | – | –
323.15 K, 7500 kPa | 1083.95 | – | –
323.15 K, 10000 kPa | 1085.56 | – | –
323.15 K, 20000 kPa | 1092.07 | – | –
323.15 K, 30000 kPa | 1098.22 | – | –
323.15 K, 40000 kPa | 1104.01 | – | –
323.15 K, 50000 kPa | 1109.47 | – | –
323.15 K, 60000 kPa | 1114.68 | – | –
325.65 K, 101.33 kPa | – | 1347.3 | 1.202
328.15 K, 100 kPa | 1073.32 | – | –
328.15 K, 101.33 kPa | – | 1338.4 | 1.151
328.15 K, 2500 kPa | 1075.43 | – | –
328.15 K, 5000 kPa | 1077.24 | – | –
328.15 K, 7500 kPa | 1079.03 | – | –
328.15 K, 10000 kPa | 1080.7 | – | –
328.15 K, 20000 kPa | 1087.38 | – | –
328.15 K, 30000 kPa | 1093.64 | – | –
328.15 K, 40000 kPa | 1099.55 | – | –
328.15 K, 50000 kPa | 1105.14 | – | –
328.15 K, 60000 kPa | 1110.48 | – | –
330.65 K, 101.33 kPa | – | 1329.5 | 1.11
333.15 K, 100 kPa | 1068.3 | – | –
333.15 K, 101.33 kPa | – | 1320.5 | 1.072
333.15 K, 2500 kPa | 1070.05 | – | –
333.15 K, 5000 kPa | 1072.29 | – | –
333.15 K, 7500 kPa | 1074.1 | – | –
333.15 K, 10000 kPa | 1075.84 | – | –
333.15 K, 20000 kPa | 1082.66 | – | –
333.15 K, 30000 kPa | 1089.1 | – | –
333.15 K, 40000 kPa | 1095.12 | – | –
333.15 K, 50000 kPa | 1100.86 | – | –
333.15 K, 60000 kPa | 1106.23 | – | –
335.65 K, 101.33 kPa | – | 1311.6 | 1.039
338.15 K, 100 kPa | 1063.25 | – | –
338.15 K, 101.33 kPa | – | 1302.8 | 1.002
338.15 K, 2500 kPa | 1065.43 | – | –
338.15 K, 5000 kPa | 1067.33 | – | –
338.15 K, 7500 kPa | 1069.06 | – | –
338.15 K, 10000 kPa | 1070.99 | – | –
338.15 K, 20000 kPa | 1077.96 | – | –
338.15 K, 30000 kPa | 1084.52 | – | –
338.15 K, 40000 kPa | 1090.69 | – | –
338.15 K, 50000 kPa | 1096.51 | – | –
338.15 K, 60000 kPa | 1102.02 | – | –

Settings | surface tension liquid-gas [mN/m] | vapor or sublimation pressure [kPa]
313.15 K | – | 0.2
315.65 K | 38.44 | –
318.15 K | 38.13 | 0.3
320.65 K | 37.78 | –
323.15 K | 37.51 | 0.4
325.65 K | 37.26 | –
328.15 K | 36.91 | 0.54
330.65 K | 36.54 | –
333.15 K | 36.21 | 0.74
335.65 K | 35.92 | –
338.15 K | 35.57 | 0.97
343.15 K | – | 1.3
348.15 K | – | 1.66
353.15 K | – | 2.17
358.15 K | – | 2.76
363.15 K | – | 3.52
368.15 K | – | 4.4
373.15 K | – | 5.52
378.15 K | – | 6.79
383.15 K | – | 8.43
388.15 K | – | 10.2
393.15 K | – | 12.31
398.15 K | – | 15
403.15 K | – | 18
408.15 K | – | 21.27
413.15 K | – | 25.33
418.15 K | – | 30.01
423.15 K | – | 34.95
428.15 K | – | 40.57
433.15 K | – | 47.43
438.15 K | – | 55.14
443.15 K | – | 63.39
448.15 K | – | 72.37
453.15 K | – | 83.4

101.33 kPa, Vibrating tube method
Settings | mass density [kg/m3]
315.65 K | 1085.82
318.15 K | 1083.33
320.65 K | 1080.83
323.15 K | 1078.33
325.65 K | 1075.83
328.15 K | 1073.32
330.65 K | 1070.81
333.15 K | 1068.3
335.65 K | 1065.78
338.15 K | 1063.25

— the NIST ThermoML archive (doi:10.1021/je400783h)
